According to ChEMBL document CHEMBL1139106, “Specific stabilization of DNA triple helices by indolo[2,1-b]quinazolin-6,12-dione derivatives” (Bioorg Med Chem Lett, 2007):
Active and inactive are the calls of the source. No cut-off for these calls is given here.

Key:
[1] = organism: Homo sapiens; assay: Binding affinity to 14C3 DNA triplex assessed as melting temperature for transition from triplex to duplex DNA forms by UV absorption spectrometry
[2] = organism: Homo sapiens; assay: Binding affinity to 14C3 DNA triplex assessed as melting temperature change from triplex to duplex DNA forms by UV absorption spectrometry
[3] = organism: Homo sapiens; assay: Binding affinity to 14C3 DNA triplex assessed as melting temperature change from duplex to single strand DNA forms by UV absorption spectrometry
[4] = organism: Homo sapiens; assay: Binding affinity to 14C3 DNA triplex assessed as melting temperature for transition from duplex to single strand DNA forms by UV absorption spectrometry
[5] = organism: Homo sapiens; assay: Binding affinity to 14C3 DNA triplex assessed as stabilization of triplex DNA form

Compound `NCCCNc1cc2c(cc1F)C(=O)c1nc3ccccc3c(=O)n1-2` has a Tm [1] of 39.8 °C, a ΔTm [2] of 19.3 °C and a ΔTm [3] of 4.8 °C. The Tm [4] was 63.8 °C.

`NCCCNc1ccc2c(c1)-n1c(nc3ccccc3c1=O)C2=O` gave a Tm [1] of 33.5 °C, a ΔTm [2] of 13 °C and a ΔTm [3] of 5.7 °C. It also gave a Tm [4] of 64.7 °C.

For `COc1ccc2c(ccc3[nH]c4c(C)cnc(NCCCN)c4c32)c1`, the Activity [5] was “Active”.

`COc1ccc2c(ccc3c2[nH]c2c(C)cnc(NCCCN(C)CCCN)c23)c1` was tested, and the Activity [5] was “Active”.

For `CN(CCCN)c1ccc2c(c1)-n1c(nc3ccccc3c1=O)C2=O`, the Tm [1] was 39.3 °C, the ΔTm [2] was 18.8 °C and the ΔTm [3] was 3.3 °C. The Tm [4] was 62.3 °C.

For `CN(CCCN)c1cc2c(cc1F)C(=O)c1nc3ccccc3c(=O)n1-2`, the Tm [1] was 45.3 °C, the ΔTm [2] was 24.8 °C and the ΔTm [3] was 2.8 °C. For the same compound, the Tm [4] was 61.8 °C.
